No end group written: not given here. *: point of attachment. iodo = iodine substituent on Tyr (iodo-Tyr), I*
Legend:
[1] = system: GM-CFC from mouse bone marrow; test: Effect on GM-CFC from mouse bone marrow; format: cell-based; set-up: key: +++: strong enhancement, as THF-γ2; ++ and +: medium and weak enhancement, lower than THF-γ2; ++ and +: medium and weak enhancement, lower than THF-γ2; --no activity; details: graded against THF-γ2; Example 1, section 1.2
Description: 1.2. Effect of THF-γ2 on GM-CFC From Mouse Bone Marrow. In this second bioassay, the effect of THF-γ2 and its analogs in the enhancement of the number of colonies of GM-CFC in the presence of growth factors is determined. 1.2.1. […] Tibia and femur were removed from BALB/c female mice (6-8 weeks old). The tip of the bone was cut and DMEM with 2.5% FCS was flushed into the bone using a 1 ml syringe with a 26 G needle. This procedure was repeated twice, the cells were then washed in medium and counted in the presence of trypan blue. 1.2.2 Preincubation with THF-γ2. Bone marrow cells suspension was prepared in DMEM with 2.5% FCS at a concentration of 15×10^6 /3.0 ml. THFγ2 diluted in DMEM was added in 20 μl aliquots, control cells received 20 μl DMEM. Cell suspensions in conical tissue culture tubes were incubated at 37° C./8% CO2 for 1 h. Cells were then collected, washed and counted in trypan blue. Cell suspensions were adjusted at 1×10^6 /ml. 1.2.3. GM-CFC assay. Bone marrow cells (4×10^5) are suspended in methylcellulose (0.8%), FCS (20%) and conditioned medium of 14FIL3 CB6 cell line (5%) in a total volume of 4 ml of DMEM. After vigorous mixing, the suspension is seeded into 30 mm diameter plates with the aid of a 3.0 ml syringe (21G needle, in triplicate). […] Colonies are counted using an inverted microscope at low magnification.

mouse spleen cells = test: ConA-induced IL-2 production; format: cell-based; set-up: key: +++: strong enhancement, as THF-γ2; ++ and +: medium and weak enhancement, lower than THF-γ2; ++ and +: medium and weak enhancement, lower than THF-γ2; --no activity; details: graded against THF-γ2; Example 1, section 1.1
Description: 1.1. ConA-Induced IL-2 Production
In this bioassay, the effect of THF-γ2 and its analogs in enhancing the secretion of ConA-induced IL-2 from murine spleen cells is determined.
1.1.1. Preparation of cells and preincubation with THF-γ2. Pooled spleen cells (10^7 cell/ml) from five female C3B6F1 (C3HeB/FeJ×C57BL/6J) mice (obtained from Jackson Labs, U.S.A.) aged 6-8 weeks are seeded in 24-well plates (Costar, Cambridge, Mass, U.S.A.). The cells are prepared in medium RPMI-1640 supplemented with penicillin (100 u/ml), streptomycin (100 μg/ml), 2 mM glutamine, 50 μM 2-mercaptoethanol (2-ME) and 20 mM HEPES. THF-γ2 in various concentrations in phosphate buffered saline (PBS), is added in 20 μl aliquots, while control cultures receive 20 μl PBS. The cell cultures are incubated for 20 h in a humidified incubator of 5% CO2 /95% air and 37° C.
1.1.2. Induction of IL-2. ConA (Concanavalin A, ConA, 3×crystalline, Bio-Makor, Ness-Ziona, Israel) is added to the wells in 1 ml fresh medium (as in 1.1.1 above) at suboptimal concentration (1-2.5 μ/ml). […]
1.1.3. […] After incubation of 48 h at 37° C./5% CO2, the proliferation is assessed by the MTT colorimetric assay (T. Mosmann, J. Immunol. Methods 65: 55-63, 1983). Results are expressed in units/ml calculated using a standard murine IL-2 preparation (according to S. Gillis et al., J. Immunol. 120: 2027, 1978).

[2] = system: murine cytomegalovirus (MCMV); details: MCMV-infected mice; cited from earlier work
[3] = system: patients with reduced circulating T cells; details: 4 ng/kg/day i.m., 18 injections in 3 weeks; cited from earlier work
[4] = system: viral infections of the herpes group; details: four patients, same protocol as the pilot study; cited from earlier work

Iodo-Tyr-Leu-Glu-Asp-Gly-Pro-Lys-Phe-Leu (Y(iodo)LEDGPKFL) [iodo-Y^-1 -THF-γ2]
GM-CFC: Enhancement of the number of GMCFC from mouse bone marrow [1]: - | IL-2: Enhancement of ConA induced IL2 production in mouse spleen cells (mouse spleen cells): ++

LEDGPKFL [THF-γ2, Leu-Glu-Asp-Gly-Pro-Lys-Phe-Leu]
interferon synthesis and NK cytotoxicity [2]: did not affect | side effects [3]: No side effects attributable to synthetic THF-γ2 were observed | side effects [4]: no deleterious side effects were documented
